In PubChem BioAssay AID1963828 (Molecular Pharmacology Branch, DTP, NCI, 2024):

Tested on: 991263-137-R1-J2-PDC complex spheroid viability
Assay: Anticancer human tumor 991263-137-R1-J2-PDC patient-derived colon adenocarcinoma cell line growth inhibition [POLQ]
Settings: for IC50: curve of first compound; for viability, T/C: stronger effect = lower value
Summary of the method: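 Growth inhibition in 3D: complex spheroids (tumor PDC, HUVEC, MSC) treated with POLQ inhibitor combinations; where Cmax unknown, highest tested concentration 10 microM, except SN-38 at 1 microM.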

[1] = second compound 0.0316 µM, first compound 0.00316 µM
[2] = second compound 0.0316 µM, first compound 0.01 µM
[3] = second compound 0.0316 µM, first compound 0.0316 µM
[4] = second compound 0.0316 µM, first compound 0.1 µM
[5] = second compound 0.1 µM, first compound 0.00316 µM
[6] = second compound 0.1 µM, first compound 0.01 µM
[7] = second compound 0.1 µM, first compound 0.0316 µM
[8] = second compound 0.1 µM, first compound 0.1 µM
[9] = second compound 0.316 µM, first compound 0.00316 µM
[10] = second compound 0.316 µM, first compound 0.01 µM
[11] = second compound 0.316 µM, first compound 0.0316 µM
[12] = second compound 0.316 µM, first compound 0.1 µM
[13] = second compound 1 µM, first compound 0.00316 µM
[14] = second compound 1 µM, first compound 0.01 µM
[15] = second compound 1 µM, first compound 0.0316 µM
[16] = second compound 1 µM, first compound 0.1 µM
[17] = second compound 3.16 µM, first compound 0.00316 µM
[18] = second compound 3.16 µM, first compound 0.01 µM
[19] = second compound 3.16 µM, first compound 0.0316 µM
[20] = second compound 3.16 µM, first compound 0.1 µM
[21] = second compound 10 µM, first compound 0.00316 µM
[22] = second compound 10 µM, first compound 0.01 µM
[23] = second compound 10 µM, first compound 0.0316 µM
[24] = second compound 10 µM, first compound 0.1 µM
[25] = second compound 0.0316 µM, first compound 0.316 µM
[26] = second compound 0.0316 µM, first compound 1 µM
[27] = second compound 0.1 µM, first compound 0.316 µM
[28] = second compound 0.1 µM, first compound 1 µM
[29] = second compound 0.316 µM, first compound 0.316 µM
[30] = second compound 0.316 µM, first compound 1 µM
[31] = second compound 1 µM, first compound 0.316 µM
[32] = second compound 1 µM, first compound 1 µM
[33] = second compound 3.16 µM, first compound 0.316 µM
[34] = second compound 3.16 µM, first compound 1 µM
[35] = second compound 10 µM, first compound 0.316 µM
[36] = second compound 10 µM, first compound 1 µM
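Note: spheroids exposed to compounds for 7 days before readout.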
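Throughout, for viability, T/C: 100% = DMSO vehicle control viability.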

CC[C@@]1(O)C(=O)OCc2c1cc1n(c2=O)Cc2cc3c(CN(C)C)c(O)ccc3nc2-1 + Nc1ccc(C#CCN(C(=O)Cc2ncc(C(F)(F)F)cc2C(F)(F)F)c2ccc(F)cc2)nn1
IC50 (second compound 0.0316 µM): > 100 nM | IC50 (second compound 0.1 µM): > 100 nM | IC50 (second compound 0.316 µM): > 100 nM | IC50 (second compound 1 µM): > 100 nM | IC50 (second compound 3.16 µM): > 100 nM | IC50 (second compound 10 µM): > 100 nM | viability, T/C (second compound 0.0316 µM, first compound 0.000316 µM): 94.8% | viability, T/C (second compound 0.0316 µM, first compound 0.001 µM): 92.6% | viability, T/C [1]: 92.4% | viability, T/C [2]: 101% | viability, T/C [3]: 99.8% | viability, T/C [4]: 80.2% | viability, T/C (second compound 0.1 µM, first compound 0.000316 µM): 111% | viability, T/C (second compound 0.1 µM, first compound 0.001 µM): 102% | viability, T/C [5]: 101% | viability, T/C [6]: 94.6% | viability, T/C [7]: 101% | viability, T/C [8]: 79.8% | viability, T/C (second compound 0.316 µM, first compound 0.000316 µM): 108% | viability, T/C (second compound 0.316 µM, first compound 0.001 µM): 109% | viability, T/C [9]: 95.4% | viability, T/C [10]: 107% | viability, T/C [11]: 104% | viability, T/C [12]: 76.8% | viability, T/C (second compound 1 µM, first compound 0.000316 µM): 104% | viability, T/C (second compound 1 µM, first compound 0.001 µM): 106% | viability, T/C [13]: 101% | viability, T/C [14]: 101% | viability, T/C [15]: 101% | viability, T/C [16]: 84.3% | viability, T/C (second compound 3.16 µM, first compound 0.000316 µM): 102% | viability, T/C (second compound 3.16 µM, first compound 0.001 µM): 94.9% | viability, T/C [17]: 105% | viability, T/C [18]: 93.1% | viability, T/C [19]: 93.6% | viability, T/C [20]: 65.6% | viability, T/C (second compound 10 µM, first compound 0.000316 µM): 102% | viability, T/C (second compound 10 µM, first compound 0.001 µM): 112% | viability, T/C [21]: 107% | viability, T/C [22]: 88.1% | viability, T/C [23]: 91.1% | viability, T/C [24]: 66.6%

CCc1c2c(nc3ccc(O)cc13)-c1cc3c(c(=O)n1C2)COC(=O)[C@]3(O)CC + Nc1ccc(C#CCN(C(=O)Cc2ncc(C(F)(F)F)cc2C(F)(F)F)c2ccc(F)cc2)nn1
IC50 (second compound 0.0316 µM): 81 nM | IC50 (second compound 0.1 µM): 62.1 nM | IC50 (second compound 0.316 µM): 101 nM | IC50 (second compound 1 µM): 110 nM | IC50 (second compound 3.16 µM): 90.9 nM | IC50 (second compound 10 µM): 94.1 nM | viability, T/C [1]: 90.7% | viability, T/C [2]: 76.1% | viability, T/C [3]: 51.9% | viability, T/C [4]: 51.2% | viability, T/C [25]: 42% | viability, T/C [26]: 26.2% | viability, T/C [5]: 95.9% | viability, T/C [6]: 78.6% | viability, T/C [7]: 52.9% | viability, T/C [8]: 45.3% | viability, T/C [27]: 42.8% | viability, T/C [28]: 30.2% | viability, T/C [9]: 102% | viability, T/C [10]: 89.6% | viability, T/C [11]: 58% | viability, T/C [12]: 52.9% | viability, T/C [29]: 39.8% | viability, T/C [30]: 25.6% | viability, T/C [13]: 100% | viability, T/C [14]: 81.5% | viability, T/C [15]: 56.7% | viability, T/C [16]: 55.4% | viability, T/C [31]: 42.8% | viability, T/C [32]: 28.2% | viability, T/C [17]: 89.7% | viability, T/C [18]: 72.7% | viability, T/C [19]: 59.1% | viability, T/C [20]: 48% | viability, T/C [33]: 43.6% | viability, T/C [34]: 24.3% | viability, T/C [21]: 75% | viability, T/C [22]: 65.1% | viability, T/C [23]: 58.3% | viability, T/C [24]: 53.3% | viability, T/C [35]: 35.7% | viability, T/C [36]: 24.5%

COc1cc(C2c3cc4c(cc3C(OC3OC5COC(C)OC5C(O)C3O)C3COC(=O)C23)OCO4)cc(OC)c1O (stereo unspecified) + Nc1ccc(C#CCN(C(=O)Cc2ncc(C(F)(F)F)cc2C(F)(F)F)c2ccc(F)cc2)nn1
IC50 (second compound 0.0316 µM): > 10000 nM | IC50 (second compound 0.1 µM): > 10000 nM | IC50 (second compound 0.316 µM): > 10000 nM | IC50 (second compound 1 µM): > 10000 nM | IC50 (second compound 3.16 µM): > 10000 nM | IC50 (second compound 10 µM): > 10000 nM | viability, T/C [3]: 106% | viability, T/C [4]: 94.4% | viability, T/C [25]: 108% | viability, T/C [26]: 94.4% | viability, T/C (second compound 0.0316 µM, first compound 3.16 µM): 93.2% | viability, T/C (second compound 0.0316 µM, first compound 10 µM): 74.4% | viability, T/C [7]: 115% | viability, T/C [8]: 99.8% | viability, T/C [27]: 102% | viability, T/C [28]: 98.9% | viability, T/C (second compound 0.1 µM, first compound 3.16 µM): 91% | viability, T/C (second compound 0.1 µM, first compound 10 µM): 74.5% | viability, T/C [11]: 97.9% | viability, T/C [12]: 122% | viability, T/C [29]: 107% | viability, T/C [30]: 92.4% | viability, T/C (second compound 0.316 µM, first compound 3.16 µM): 93.5% | viability, T/C (second compound 0.316 µM, first compound 10 µM): 72.2% | viability, T/C [15]: 100% | viability, T/C [16]: 104% | viability, T/C [31]: 97.8% | viability, T/C [32]: 96.4% | viability, T/C (second compound 1 µM, first compound 3.16 µM): 99.9% | viability, T/C (second compound 1 µM, first compound 10 µM): 74.9% | viability, T/C [19]: 96.3% | viability, T/C [20]: 96.8% | viability, T/C [33]: 103% | viability, T/C [34]: 86.7% | viability, T/C (second compound 3.16 µM, first compound 3.16 µM): 72.1% | viability, T/C (second compound 3.16 µM, first compound 10 µM): 66.1% | viability, T/C [23]: 89.6% | viability, T/C [24]: 96.1% | viability, T/C [35]: 88.7% | viability, T/C [36]: 68.8% | viability, T/C (second compound 10 µM, first compound 3.16 µM): 70.9% | viability, T/C (second compound 10 µM, first compound 10 µM): 61.5%
